Results as given in patent US7608278B2, “Formulations of hydrophobic proteins in an immunogenic composition having improved tolerability” (priority 2003, dated 2009).
Values joined by “and” are separate entries in the source; they are usually repeats but may differ in a detail not shown here. Identical values can stand only once. Like-named read-outs stand apart in the source and are kept apart here.

Tests used:
[1] = system: rat footpad; experiment: Rat footpad (paw-lick) pain test; assay type: in vivo, Male Sprague Dawley rats; conditions: for Mean time pain response, 0-10 min. / Mean time pain response, 10-20 min.: 8 rats per group; for Pain response in the rat footpad model (result in words): Examples 1-7 and 10, footpad injection 0.1 or 0.2 ml; for Pain in rat footpad model, survey of detergents (result in words): Example 9, injected at concentrations above the CMC for the detergent
Description: An animal model, the rat paw-lick (footpad) model, which has previously been employed for detection of pain associated with the injection of antibiotics, was utilized (Celozzi et al. J. Pharmacol. Methods, 1980, 4:[…]; Comerski et al., Fundamental and Appl. Toxicology, 1986, 6:335-338). This model monitors the amount of time the rats spend lifting, licking, and biting the injected paw.
The “rat footpad pain” or “rat paw-lick” test or model as used herein refers to a test or model used to determine the pain induced by a specific formulation upon injection. The test consists of uniformly injecting into the footpad of rats of the same species and approximately the same weights compositions to be assessed as pain causing agents along with compositions known to cause pain at the injection site, as well as compositions known not to cause pain at the injection site. A statistically significant number of animals are to be used for each test and control formulation. After the injection, the animal is placed in a cage with mirrors and then observed by a technician (preferably blinded as to the identity of the immunogenic composition) for 20 to 30 minutes for flinching, lifting, licking, or biting of the injected paw. The amount of time spent on these pain response behaviors are recorded using a stopwatch and summed for 10 minute periods.
The phrase “less painful” as used herein refers to an alteration in the composition that leads to a reduction in the length of time or intensity, or both, of a pain response compared to that of the non-altered composition as measured by the rat footpad pain test. The phrase “50% reduction in pain” as used herein refers to a 50% reduction in the amount of time spent on pain responses as measured by the rat footpad pain test when comparing altered and unaltered immunogenic compositions administered in equal injection volumes by the same means and observed for the same length of time. The number of animals in each group is a statistically significant number. Observation of the different injection groups is preferably done by the same technician and who is blinded as to the identification of the compositions.
Rat footpad pain testing. The immunogenic composition samples were brought to room temperature prior to being administered to the animals. The animals were injected by a technician who was not involved in the monitoring of pain responses. Male Sprague Dawley rats (Crl:CD®(SD)IGS BR, 50-100 g at arrival) from Charles River Laboratories Inc. (Kingston, N.Y.) were used for all studies. The rats were acclimated at the research facility for approximately one week prior to initiation of a study, at which point they weighed 100-150 g. The paw to be injected was examined prior to injection to verify absence of any injury. The animal was then restrained in the technician's arm such that the hind legs extended forward. The right rear leg was grasped just above the hock joint and pressure was exerted to hold the paw straight out, with plantar (sole) facing upwards. Using a new 23 gauge needle for each animal, the operator inserted the bevel side up in the center of paw, parallel to the surface of the paw, until the needle was in the center of the pad. The material was then injected and the needle left in place for 3-5 seconds prior to withdrawal, to minimize leakage from the injection site. […]
The animal was then placed in a cage with 3 mirrors (adjoining sides and floor) and observed by a different technician (blinded as to the identity of the immunogenic composition) for 30 minutes for flinching, lifting, licking, or biting of the injected paw. The length of time spent on these pain response behaviors was recorded using a stopwatch and summed for 10 minute periods. […]
Statistical Analysis. Results were analyzed using an ANOVA method adjusting for multiple comparisons that compared each treatment group with control group who received buffer alone (either PBS or TBS). […]

[2] = known critical micelle concentrations, cited from earlier work
[3] = Example 1 (Table 1), 0.1 ml footpad injection, 6 rats per group
[4] = Example 4 (Table 7), 0.2 ml injection (formalin 0.1 ml), 10 rats per group
[5] = Example 6 (Table 11), 0.2 ml injection (formalin 0.1 ml), 10 rats per group
[6] = Example 7 (Table 13), 0.2 ml injection (formalin 0.1 ml), 10 rats per group
[7] = Example 9 (Table 15), concentration 5%, 100 μl
[8] = Example 9 (Table 16), concentration 5%, 100 μl
[9] = Example 9 (Table 17), concentration 5%, 100 μl
[10] = Example 9 (Table 15), detergent concentration 0.05%, 200 μl
[11] = Example 9 (Table 17), concentration 0.8%, 200 μl
[12] = Example 9 (Table 17), concentration 0.5%, 200 μl
[13] = Example 9 (Table 16), concentration 0.9%, 200 μl
[14] = Example 9 (Table 15), detergent concentration 0.05%, 200 μl, listed as Zw3-14
[15] = Example 9 (Table 17), concentration 7 mM, 200 μl
[16] = Example 9 (Table 16), concentration 1%, 200 μl
[17] = Example 9 (Table 16), concentration 0.025%, 200 μl

Compound: C=O [5% Formalin]
- Time pain response, Mean, 0-10 min. [1, 3]: 274 s
- Time pain response, Mean, 10-20 min. [1, 3]: 312 sec
- Time pain response, Mean, 20-30 min. [1, 3]: 450 s
- Time pain response, Median, 10-20 min. [1, 3]: 292 sec
- Time pain response, Median, 20-30 min. [1, 3]: 448 s
- Time pain response, Median, 0-10 min. ([1]; Example 1 (Table 1), 0.1 ml footpad injection, 6 rats per group, PBS not pyrogen-free): 311 s
- 0-10 min. time pain response, Mean [1, 4]: 178 s
- 0-10 min. time pain response, Median [1, 4]: 162 s
- 10-20 min. time pain response, Mean [1, 4]: 174 sec
- 10-20 min. time pain response, Median [1, 4]: 173 sec
- 0-10 min. time pain response, Mean [1, 5]: 225 s
- 0-10 min. time pain response, Median [1, 5]: 219 s
- 10-20 min. time pain response, Mean [1, 5]: 167 sec
- 10-20 min. time pain response, Median [1, 5]: 181 sec
- 0-10 min time pain response, Mean [1, 6]: 252 s
- 0-10 min time pain response, Median [1, 6]: 233 s
- 10-20 min. time pain response, Mean [1, 6]: 435 sec
- 10-20 min. time pain response, Median [1, 6]: 448 sec
- Mean time pain response, 0-10 min. [1, 7]: 161.3 s
- Mean time pain response, 10-20 min. [1, 7]: 313.5 sec.
- Mean time pain response, 0-10 min. [1, 8]: 114 s
- Mean time pain response, 10-20 min. [1, 8]: 218 sec.
- Mean time pain response, 0-10 min. [1, 9]: 272.5 s
- Mean time pain response, 10-20 min. [1, 9]: 280.4 sec.
- Pain response in the rat footpad model (result in words) [1]: induced the highest pain response among the compositions tested

Compound: alpha-[4-(1,1,3,3-tetramethylbutyl)phenyl]-omega-hydroxypoly(oxy-1,2-ethanediyl) [TRITON ® X-100]
- Mean time pain response, 0-10 min. [1, 10]: 8.5 s
- Mean time pain response, 10-20 min. [1, 10]: 11.2 sec.
- Pain in rat footpad model, survey of detergents (result in words) [1]: do not cause significant pain
- CMC [2]: 0.2 to 0.9 mM
- CMC (%) [2]: 0.013-0.056%

Compound: CCCCCCCCCC[N+](C)(C)CCCS(=O)(=O)[O-] [Zwittergent ® 3-10, n-Decyl-N,N-dimethyl-3-ammonio-1-propanesulfonate]
- Mean time pain response, 0-10 min. [1, 11]: 300.6 s
- Mean time pain response, 10-20 min. [1, 11]: 260.5 sec.
- Pain in rat footpad model, survey of detergents (result in words) [1]: caused significant pain
- CMC [2]: 25 to 40 mM
- CMC (%) [2]: 0.43-1.23%

Compound: Sodium deoxycholate
- Mean time pain response, 0-10 min. [1, 12]: 307.0 s
- Mean time pain response, 10-20 min. [1, 12]: 121.9 sec.

Compound: C[C@H](CCC(=O)NCCC[N+](C)(C)CCCS(=O)(=O)[O-])[C@H]1CC[C@H]2[C@@H]3[C@H](O)C[C@@H]4C[C@H](O)CC[C@]4(C)[C@H]3C[C@H](O)[C@]12C [CHAPS ®, 3-[(3-Cholamidopropyl)dimethylammonio]-1-propanesulfonate]
- Mean time pain response, 0-10 min. [1, 13]: 351 s
- Mean time pain response, 10-20 min. [1, 13]: 114 sec.
- Pain in rat footpad model, survey of detergents (result in words) [1]: caused significant pain
- Pain response in the rat footpad model (result in words) [1]: cause considerable pain
- CMC [2]: 6 to 10 mM
- CMC (%) [2]: 0.18-0.62%

Compound: CCCCCCCC[N+](C)(C)CCCS(=O)(=O)[O-] [Zwittergent ® 3-8, n-Octyl-N,N-dimethyl-3-ammonio-1-propanesulfonate]
- CMC [2]: 330 mM
- CMC (%) [2]: 4.6-10.9%

Compound: CCCCCCCCCCCC[N+](C)(C)CCCS(=O)(=O)[O-] [Zwittergent ® 3-12, n-Dodecyl-N,N-dimethyl-3-ammonio-1-propanesulfonate]
- Mean time pain response, 0-10 min. [1, 10]: 295.3 s
- Mean time pain response, 10-20 min. [1, 10]: 139.8 sec.
- Pain in rat footpad model, survey of detergents (result in words) [1]: caused significant pain
- Pain response in the rat footpad model (result in words) [1]: responsible for the pain on injection
- CMC [2]: 2 to 4 mM
- CMC (%) [2]: 0.047-0.13%

Compound: CCCCCCCCCCCCCC[N+](C)(C)CCCS(=O)(=O)[O-] [Zwittergent ® 3-14, n-Tetradecyl-N,N-dimethyl-3-ammonio-1-propanesulfonate]
- Mean time pain response, 0-10 min. [1, 14]: 44.7 s and 37.8 s
- Mean time pain response, 10-20 min. [1, 14]: 33.6 sec. and 30.1 sec.
- Pain in rat footpad model, survey of detergents (result in words) [1]: caused significant pain
- Pain response in the rat footpad model (result in words) [1]: responsible for the pain on injection
- CMC [2]: 0.1 to 0.4 mM
- CMC (%) [2]: 0.004-0.015%
- CMC (%) ([2]; listed as Zw 3-14): 0.004%-0.015%

Compound: CCCCCCCCCC(=O)N(C)C[C@H](O)[C@@H](O)[C@H](O)[C@H](O)CO [Mega10, Decanoyl-N-methylglucamide]
- Mean time pain response, 0-10 min. [1, 15]: 28.8 s
- Mean time pain response, 10-20 min. [1, 15]: 31.0 sec.

Compound: C[C@H](CCC(=O)N(CCCNC(=O)[C@H](O)[C@@H](O)[C@H](O)[C@H](O)CO)CCCNC(=O)[C@H](O)[C@@H](O)[C@H](O)[C@H](O)CO)[C@H]1CC[C@H]2[C@@H]3[C@H](O)C[C@@H]4C[C@H](O)CC[C@]4(C)[C@H]3C[C@H](O)[C@]12C [BigCHAP ®, N,N-bis(3-D-glucon-amidopropyl)cholamide]
- CMC [2]: 3 to 4 mM
- CMC (%) [2]: 0.3%

Compound: CCCCCCCCO[C@@H]1O[C@H](CO)[C@@H](O)[C@H](O)[C@H]1O [Octyl glucoside, n-Octyl-b-D-glucopyranoside]
- Mean time pain response, 0-10 min. [1, 16]: 48 s
- Mean time pain response, 10-20 min. [1, 16]: 108 sec.
- Pain in rat footpad model, survey of detergents (result in words) [1]: induced pain
- Pain response in the rat footpad model (result in words) [1]: cause considerable pain

Compound: CCCCCCCC/C=C\CCCCCCCC(=O)OCCOCC(OCCO)C1OCC(OCCO)C1OCCO (centres unmarked) [TWEEN 80, Polyoxyethylene (20) sorbitan monooleate]
- Mean time pain response, 0-10 min. [1, 17]: 3 s
- Mean time pain response, 10-20 min. [1, 17]: 6 sec.
- Pain in rat footpad model, survey of detergents (result in words) [1]: do not cause significant pain
- CMC [2]: 0.012 mM
- CMC (%) [2]: 0.0016%

Compound: CCCCCCCCCCCCO[C@@H]1O[C@H](CO)[C@@H](O[C@H]2O[C@H](CO)[C@@H](O)[C@H](O)[C@H]2O)[C@H](O)[C@H]1O [Dodecyl maltoside, n-Dodecyl-beta-D-maltoside]
- Mean time pain response, 0-10 min. [1, 11]: 298.0 s
- Mean time pain response, 10-20 min. [1, 11]: 141.0 sec.
- Pain in rat footpad model, survey of detergents (result in words) [1]: induced pain
